Legend:
Human plasma kallikrein = Human plasma kallikrein (Homo sapiens (Human), UniProt P03952); experiment: Determination of the IC50 for Plasma Kallikrein; type: biochemical; conditions: 37° C., fluorogenic substrate H-DPro-Phe-Arg-AFC; read-out: IC50 (human PKal)
Protocol: Human plasma kallikrein (Protogen) was incubated at 37° C. with the fluorogenic substrate H-DPro-Phe-Arg-AFC and various concentrations of the test compound. Residual enzyme activity (initial rate of reaction) was determined by measuring the change in optical absorbance at 410 nm and the IC50 value for the test compound was determined.

Human KLK1 = Human KLK1 (Homo sapiens (Human), UniProt P06870); experiment: Determination of the IC50 for KLK1; type: biochemical; conditions: 37° C., fluorogenic substrate H-DVal-Leu-Arg-AFC
Protocol: KLK1 inhibitory activity in vitro was determined using standard published methods (see e.g. Johansen et al., Int. J. Tiss. Reac. 1986, 8, 185; Shori et al., Biochem. Pharmacol., 1992, 43, 1209; Stürzebecher et al., Biol. Chem. Hoppe-Seyler, 1992, 373, 1025). Human KLK1 (Callbiochem) was incubated at 37° C. with the fluorogenic substrate H-DVal-Leu-Arg-AFC and various concentrations of the test compound. Residual enzyme activity (initial rate of reaction) was determined by measuring the change in optical absorbance at 410 nm and the IC50 value for the test compound was determined.

Sequence of Human plasma kallikrein (P03952 391-638): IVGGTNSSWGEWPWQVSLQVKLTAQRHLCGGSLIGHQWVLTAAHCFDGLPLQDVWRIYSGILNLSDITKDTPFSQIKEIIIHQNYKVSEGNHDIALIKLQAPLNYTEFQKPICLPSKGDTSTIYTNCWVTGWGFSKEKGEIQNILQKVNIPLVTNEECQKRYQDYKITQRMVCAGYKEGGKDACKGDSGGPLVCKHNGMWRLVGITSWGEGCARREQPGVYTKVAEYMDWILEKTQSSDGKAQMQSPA
Sequence of Human plasma kallikrein (P03952 20-390 partner): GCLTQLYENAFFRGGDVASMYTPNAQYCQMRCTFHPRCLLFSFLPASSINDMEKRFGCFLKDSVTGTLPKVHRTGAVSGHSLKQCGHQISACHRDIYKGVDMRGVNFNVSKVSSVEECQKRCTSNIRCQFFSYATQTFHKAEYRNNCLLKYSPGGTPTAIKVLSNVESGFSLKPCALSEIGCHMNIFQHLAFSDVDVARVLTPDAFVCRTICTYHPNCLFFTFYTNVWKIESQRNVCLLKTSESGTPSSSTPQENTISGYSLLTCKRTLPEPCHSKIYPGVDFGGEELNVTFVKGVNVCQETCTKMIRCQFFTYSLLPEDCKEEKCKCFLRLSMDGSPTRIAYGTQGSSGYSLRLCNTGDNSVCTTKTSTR
Sequence of Human KLK1 (P06870 25-262): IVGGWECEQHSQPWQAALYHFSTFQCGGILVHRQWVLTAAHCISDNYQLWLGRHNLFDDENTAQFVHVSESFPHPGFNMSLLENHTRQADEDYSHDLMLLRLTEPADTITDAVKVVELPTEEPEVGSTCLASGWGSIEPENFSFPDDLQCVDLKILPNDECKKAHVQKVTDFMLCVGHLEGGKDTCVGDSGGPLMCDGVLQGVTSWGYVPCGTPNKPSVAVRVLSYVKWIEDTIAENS

| IC50 (Human plasma kallikrein) [µM] | IC50 (Human KLK1) [µM] | Structure (SMILES) |
| --- | --- | --- |
| 0.006 | > 10 | Cc1cc(CN)cc(C)c1CNC(=O)c1cc(C)n(Cc2csc(-c3ccccc3)n2)c1C [Example 3, 2,5-Dimethyl-1-(2-phenyl-thiazol-4-ylmethyl)-1H-pyrrole-3-carboxylic acid 4-aminomethyl-2,6-dimethyl-benzylamide] |
| 0.121 | > 10 | Cc1cc(C(=O)NCc2ccc(C3(N)CC3)cc2)c(C)n1Cc1csc(-c2ccccc2)n1 [Example 4, 2,5-Dimethyl-1-(2-phenyl-thiazol-4-ylmethyl)-1H-pyrrole-3-carboxylic acid 4-(1-amino-cyclopropyl)-benzylamide] |
| 0.348 | 6.36 | Cc1cc(C(=O)NCc2ccc(CN)cc2)c(C)n1Cc1csc(-c2cccnc2)c1 [Example 8, 2,5-Dimethyl-1-(5-pyridin-3-yl-thiophen-3-ylmethyl)-1H-pyrrole-3-carboxylic acid 4-aminomethyl-benzylamide] |
| 0.571 | > 10 | Cc1cc(C(=O)NCc2ccc(CN)cc2)c(C)n1Cc1csc(-c2ccccc2)c1 [Example 10, 2,5-Dimethyl-1-(5-phenyl-thiophen-3-ylmethyl)-1H-pyrrole-3-carboxylic acid 4-aminomethyl-benzylamide] |
| 5.12 | > 10 | Cc1cc(C(=O)NCc2ccc(CN)cc2)c(C)n1Cc1nc2ccccc2s1 [Example 12, 1-Benzothiazol-2-ylmethyl-2,5-dimethyl-1H-pyrrole-3-carboxylic acid 4-aminomethyl-benzylamide] |
| 2.38 | > 10 | Cc1cc(C(=O)NCc2ccc(CN)cc2)c(C)n1Cc1cc(-c2cccnc2)cs1 [Example 13, 2,5-Dimethyl-1-(4-pyridin-3-yl-thiophen-2-ylmethyl)-1H-pyrrole-3-carboxylic acid 4-aminomethyl-benzylamide] |
| 2.29 | 6.37 | Cc1cc(C(=O)NCc2ccc(CN)cc2)c(C)n1Cc1cc(-c2ccncc2)cs1 [Example 14, 2,5-Dimethyl-1-(4-pyridin-4-yl-thiophen-2-ylmethyl)-1H-pyrrole-3-carboxylic acid 4-aminomethyl-benzylamide] |
| 5.69 | > 10 | Cc1cc(C(=O)NCc2ccc(CN)cc2)c(C)n1Cc1cccc(N2CCOCC2)n1 [Example 15, 2,5-Dimethyl-1-(6-morpholin-4-yl-pyridin-2-ylmethyl)-1H-pyrrole-3-carboxylic acid 4-aminomethyl-benzylamide] |
| 0.186 | > 10 | Cc1cc(C(=O)NCc2ccc(CN)cc2)c(C)n1Cc1cccc(-c2ccccc2)n1 [Example 16, 2,5-Dimethyl-1-(6-phenyl-pyridin-2-ylmethyl)-1H-pyrrole-3-carboxylic acid 4-aminomethyl-benzylamide] |
| 0.435 | > 10 | Cc1cc(C(=O)NCc2ccc(CN)cc2)c(C)n1Cc1coc(-c2ccccc2)n1 [Example 18, 2,5-Methyl-1-(2-phenyl-oxazol-4-ylmethyl)-1H-pyrrole-3-carboxylic acid 4-aminomethyl-benzylamide] |
| 0.768 | > 10 | Cc1oc(-c2ccccc2)nc1Cn1c(C)cc(C(=O)NCc2ccc(CN)cc2)c1C [Example 19, 2,5-Dimethyl-1-(5-methyl-2-phenyl-oxazol-4-ylmethyl)-1H-pyrrole-3-carboxylic acid 4-aminomethyl-benzylamide] |
| 4.95 | 2.4 | Cc1cc(C(=O)NCc2ccc(CN)cc2)c(C)n1Cc1cccs1 [Example 20, 2,5-Dimethyl-1-thiophen-2-ylmethyl-1H-pyrrole-3-carboxylic acid 4-amidomethyl-benzylamide] |
| 1.6 | > 10 | Cc1nc(-c2ccc(Cn3c(C)cc(C(=O)NCc4ccc(CN)cc4)c3C)s2)cs1 [Example 23, 2,5-Dimethyl-1-[5-(2-methyl-thiazol-4-yl)-thiophen-2-ylmethyl]-1H-pyrrole-3-carboxylic acid 4-aminomethyl-benzylamide] |
| 0.431 | > 10 | Cc1cc(C(=O)NCc2ccc(CN)cc2)c(-c2ccccc2)n1Cc1csc(-c2ccccc2)n1 [Example 24, 5-Methyl-2-phenyl-1-(2-phenyl-thiazol-4-ylmethyl)-1H-pyrrole-3-carboxylic acid 4-aminomethyl-benzylamide] |
| 0.437 | > 10 | Cc1cc(C(=O)NCc2ccc(CN)cc2)c(C)n1Cc1csc(-c2cccs2)n1 [Example 26, 2,5-Dimethyl-1-[2-(2-thienyl)-thiazol-4-ylmethyl]-1H-pyrrole-3-carboxylic acid 4-aminomethyl-benzylamide] |
| 0.14 | > 10 | Cc1cc(C(=O)NCc2ccc(CN)cc2)c(C)n1Cc1csc(-c2cccc(F)c2)n1 [Example 29, 1-[2-(3-Fluoro-phenyl)-thiazol-4-ylmethyl]-2,5-dimethyl-1H-pyrrole-3-carboxylic acid 4-aminomethyl-benzylamide] |
| 0.773 | > 10 | Cc1cccc(-c2nc(Cn3c(C)cc(C(=O)NCc4ccc(CN)cc4)c3C)cs2)c1 [Example 30, 2,5-Dimethyl-1-(2-m-tolyl-thiazol-4-ylmethyl)-1H-pyrrole-3-carboxylic acid 4-aminomethyl-benzylamide] |
| 0.732 | > 10 | Cc1cc(C(=O)NCc2ccc(CN)cc2)c(C)n1Cc1csc(-c2ccncc2)n1 [Example 32, 2,5-Dimethyl-1-(2-pyridin-4-yl-thiazol-4-ylmethyl)-1H-pyrrole-3-carboxylic acid 4-aminomethyl-benzylamide] |
| 2.1 | > 10 | Cc1ccc(-c2nc(Cn3c(C)cc(C(=O)NCc4ccc(CN)cc4)c3C)cs2)cc1 [Example 35, 2,5-Dimethyl-1-(2-p-tolyl-thiazol-4-ylmethyl)-1H-pyrrole-3-carboxylic acid 4-aminomethyl-benzylamide] |
| 0.203 | > 10 | Cc1cc(C(=O)NCc2ccc(CN)cc2)c(C)n1Cc1csc(-c2ccccn2)n1 [Example 36, 2,5-Dimethyl-1-(2-pyridin-2-yl-thiazol-4-ylmethyl)-1H-pyrrole-3-carboxylic acid 4-aminomethyl-benzylamide] |
| 2.31 | > 10 | Cc1cc(C(=O)NCc2ccc(CN)cc2)c(C)n1Cc1csc(Cc2ccccc2)n1 [Example 38, 1-(2-Benzyl-thiazol-4-ylmethyl)-2,5-dimethyl-1H-pyrrole-3-carboxylic acid 4-aminomethyl-benzylamide] |
| 1.66 | > 10 | Cc1cc(C(=O)NCc2ccc(CN)cc2)c(C)n1Cc1csc(-c2cnccn2)n1 [Example 40, 2,5-Dimethyl-1-(2-pyrazin-2-yl-thiazol-4-ylmethyl)-1H-pyrrole-3-carboxylic acid 4-aminomethyl-benzylamide] |
| 4.7 | > 10 | CCOc1ccc(-c2nc(Cn3c(C)cc(C(=O)NCc4ccc(CN)cc4)c3C)cs2)cc1 [Example 41, 1-[2-(4-Ethoxy-phenyl)-thiazol-4-ylmethyl]-2,5-dimethyl-1H-pyrrole-3-carboxylic acid 4-aminomethyl-benzylamide] |

| Structure (SMILES) | IC50 (Human plasma kallikrein) [µM] | IC50 (Human KLK1) [µM] |
| --- | --- | --- |
| Cc1cc(C(=O)NCc2ccc(CN)cc2)c(C)n1Cc1cc(-c2ccccc2)no1 [Example 11, 2,5-Dimethyl-1-(3-phenyl-isoxazol-5-ylmethyl)-1H-pyrrole-3-carboxylic acid 4-aminomethyl-benzylamide] | 2.42 | > 10 |
| Cc1cc(C(=O)NCc2ccc(CN)cc2)c(C)n1Cc1cccc(-c2cccnc2)n1 [Example 17, 1-[2,3′]Bipyridinyl-6-ylmethyl-2,5-dimethyl-1H-pyrrole-3-carboxylic acid 4-aminomethyl-benzylamide] | 0.492 | > 10 |
| Cc1cc(C(=O)NCc2ccc(CN)cc2)c(C)n1Cc1ccc(-c2ccccc2)s1 [Example 22, 2,5-Dimethyl-1-(5-phenyl-thiophen-2-ylmethyl)-1H-pyrrole-3-carboxylic acid 4-aminomethyl-benzylamide] | 3.27 | > 10 |
| Cc1c(C(=O)NCc2ccc(CN)cc2)ccn1Cc1csc(-c2ccccc2)n1 [Example 25, 2-Methyl-1-(2-phenyl-thiazol-4-ylmethyl)-1H-pyrrole-3-carboxylic acid 4-aminomethyl-benzylamide] | 1.33 | > 10 |
| Cc1cc(C(=O)NCc2ccc(CN)cc2)c(C)n1Cc1csc(-c2cccc(Cl)c2)n1 [Example 27, 2,5-Dimethyl-1-[2-(3-chlorophenyl)-thiazol-4-ylmethyl]-1H-pyrrole-3-carboxylic acid 4-aminomethyl-benzylamide] | 0.848 | > 10 |
| Cc1cc(C(=O)NCc2ccc(CN)cc2)c(C)n1Cc1csc(-c2ccc(Cl)cc2)n1 [Example 28, 2,5-Dimethyl-1-[2-(4-chlorophenyl)-thiazol-4-ylmethyl]-1H-pyrrole-3-carboxylic acid 4-aminomethyl-benzylamide] | 1.33 | > 10 |
| Cc1cc(C(=O)NCc2ccc(CN)cc2)c(C)n1Cc1csc(-c2cccnc2)n1 [Example 31, 2,5-Dimethyl-1-(2-pyridin-3-yl-thiazol-4-ylmethyl)-1H-pyrrole-3-carboxylic acid 4-aminomethyl-benzylamide] | 0.251 | 8.08 |
| Cc1cc(C(=O)NCc2ccc(CN)cc2)c(C)n1Cc1ccccc1 [Example 55, 1-Benzyl-2,5-dimethyl-1H-pyrrole-3-carboxylic acid 4-aminomethyl-benzylamide] | 3.27 |  |
